The record followed here is patent US6602897B2, “m-Amino-phenylimino-imidazolidine derivatives for treating urinary incontinence” (Boehringer Ingelheim Pharma KG, priority 2000, dated 2003).

Series [1] has as its system Human Urethra. Kind of series: Efficacy: activity on the human urethra, contraction compared with noradrenalin. The following applies: percentage of contraction compared with noradrenalin. The protocol: (§1) The efficacy and selectivity of the compounds is determined as follows:
(§2) The maximum contraction in the dog and the activity on the human urethra are given as percentages of contraction compared with noradrenalin. Selectivity in the dog: percentage contraction on the femoral artery in the dog at 10^−5 M—percentage contraction on the carotid artery in the dog at 10^−5 M.

Series [2] has as its target CYP2D6 (Homo sapiens, UniProt P10635). The series can be described thus: Metabolism: breakdown of test substance by enzyme CYP2D6. In kind it is in vitro ADME. On the procedure:
To determine the metabolism, the enzyme CYP2D6 was allowed to act on the test substances. After 30 minutes, a check was made to see how much of the test substance put in had been broken down by the enzyme.

The test system of series [3] is dog. The series can be described thus: Efficacy: maximum contraction in the dog compared with noradrenalin. The following applies: percentage of contraction compared with noradrenalin. On the procedure:
as §1, §2

Series [4] relates to femoral artery in the dog / carotid artery in the dog. The series can be described thus: Selectivity in the dog: contraction on femoral artery vs carotid artery. Conditions: percentage contraction on femoral artery at 10^-5 M — percentage contraction on carotid artery at 10^-5 M. On the procedure:
as §1, §2

The subject of series [5] is HLM. The series can be described thus: Metabolism: breakdown of test substance by HLM. The format is in vitro ADME. The protocol:
The rate of breakdown under the effect of the enzyme HLM/60 minutes is tested analogously.

A short description of series [6]: Bioavailability after oral vs intravenous administration to fasted male rats, plasma HPLC. The format is in vivo. The following applies: rat, oral compared with intravenous, pooled plasma by HPLC. On the procedure: In order to determine bioavailability, the test substances were administered orally to a group of 8 male rats which had been fasted. As a comparison, the test substances were administered intravenously to animals in an identical second group. 1 ml blood samples were taken from the animals of both groups at specified times after administration (10 minutes, 30 minutes, 1 hour, 2 hours, and 4 hours, and additionally after 6 hours in the case of the animals treated by oral route). The blood samples taken in each group were mixed together (8 ml). After further working up, the content of the test substances in the blood for the particular time was determined from the plasma by HPLC (High Performance Liquid Chromatography) using standard methods and compared for the two groups.

Counter-ions that a name gives are not always drawn.

CYP2D6, sequence (P10635 whole entry): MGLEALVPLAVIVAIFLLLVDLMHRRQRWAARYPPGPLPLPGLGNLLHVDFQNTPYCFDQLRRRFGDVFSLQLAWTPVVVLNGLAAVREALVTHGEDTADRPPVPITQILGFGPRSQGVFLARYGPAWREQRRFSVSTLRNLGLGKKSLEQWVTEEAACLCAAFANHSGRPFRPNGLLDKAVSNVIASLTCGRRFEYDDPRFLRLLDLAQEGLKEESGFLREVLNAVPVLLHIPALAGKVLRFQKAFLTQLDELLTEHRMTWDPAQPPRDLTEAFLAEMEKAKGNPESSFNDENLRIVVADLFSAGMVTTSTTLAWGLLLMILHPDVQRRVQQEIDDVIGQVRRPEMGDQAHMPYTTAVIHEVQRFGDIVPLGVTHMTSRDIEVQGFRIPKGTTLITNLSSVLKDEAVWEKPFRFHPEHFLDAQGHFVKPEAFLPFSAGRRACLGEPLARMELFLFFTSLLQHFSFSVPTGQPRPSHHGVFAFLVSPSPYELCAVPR

In the case of `CN(C)c1ccc(Br)c(NC2=NCCN2)c1Cl`, the melting point (as a rule, the temperature, or range, at which the solid turns liquid) lay within 142 to 145 °C.

With `Cc1c(N(C)C)cc(Cl)c(Br)c1NC1=NCCN1` (as salt: hydrochloride) [Compound 1, 2′-Bromo-3′-chloro-5′-dimethylamino-6′-methylphen-1′-yl-2-iminoimidazolidine], the melting point was in the range of 239 to 240 °C.

Turning to `Cc1c(N(C)C)cc(Cl)c(Br)c1NC1=NCCN1` [Compound 1, 2′-Bromo-3′-chloro-5′-dimethylamino-6′-methylphen-1′-yl-2-iminoimidazolidine], the “Activity on Human Urethra” value in series [1] turned out to be 100%. The “% Breakdown of Substrate after 30 minutes' Incubation with CYP2D6” value (“% Breakdown of Substrate” below) in series [2] came out at 40.5%. In series [3], the “Activity in the Dog (maximum contraction)” value (from here on “Activity in the Dog”) is listed as 109%. Further, the “Selectivity in the Dog” value in series [4] is 0.92. Further, the “Breakdown of Substrate after 60 minutes' Incubation with HLM” value (“Breakdown of Substrate … with HLM” for short) in series [5] stood at 32.1.

Take `Cc1c(NC2=NCCN2)cc(Br)cc1N(C)C` [Compound 3, 3′-bromo-5′-dimethylamino-6′-methylphen-1′-yl-2-iminoimidazolidine]: the melting point lay within 140 to 143 °C. The “Activity on Human Urethra” value in series [1] is reported as 72%. In series [2], the “% Breakdown of Substrate” value is listed as 33.9%. Moreover, the “Activity in the Dog” value in series [3] is reported as 87%. Besides, the “Selectivity in the Dog” value in series [4] amounted to 0.76. Also, in series [5], the “Breakdown of Substrate … with HLM” value is reported as 17.0.

As for `Cc1c(NC2=NCCN2)cc(Cl)cc1N(C)C` [Compound 4, 3′-chloro-5′-dimethylamino-6′-methylphen-1′-yl-2-iminoimidazolidine], in series [1], the “Activity on Human Urethra” value is 137%. Also, in series [2], the “% Breakdown of Substrate” value stood at 36.5%. Further, the bioavailability (in general, dose-corrected exposure relative to a reference, in per cent) in series [6] was found to be 11%. Moreover, in series [3], the “Activity in the Dog” value was 116%. In addition, the “Selectivity in the Dog” value in series [4] was found to be 0.99. Besides, the “Breakdown of Substrate … with HLM” value in series [5] was 17.1.

As to `Cc1c(N(C)C)cc(Br)c(Br)c1NC1=NCCN1` [Compound 5, 2′-3′-dibromo-5′-dimethylamino-6′-methylphen-1′-yl-2-iminoimidazolidine], the “Activity on Human Urethra” value in series [1] is 113%. Besides, the “% Breakdown of Substrate” value in series [2] is on record as 22.2%. In series [6], the bioavailability came out at 0.8%. Further, the “Activity in the Dog” value in series [3] turned out to be 89%. Further, the “Selectivity in the Dog” value in series [4] was determined as 0.71. Also, the “Breakdown of Substrate … with HLM” value in series [5] came to 22.0.

The compound `CN(C)c1cccc(NC2=NCCN2)c1Cl` [Compound 6, 2′-chloro-3′-dimethylaminophen-1′-yl-2-iminoimidazolidine] had a melting point of 146 to 148 °C. In addition, the “Breakdown of Substrate … with HLM” value in series [5] is given as 7.4.

For `CN(C)c1c(Br)ccc(NC2=NCCN2)c1Cl` [Compound 7, 4′-bromo-2′-chloro-3′-dimethylaminophen-1′-yl-2-iminoimidazolidine], the melting point was in the range of 150 to 155 °C. The “% Breakdown of Substrate” value in series [2] was found to be 46.4%. The “Breakdown of Substrate … with HLM” value in series [5] is on record as 55.8.
